{"source": "patent US20160045463A1", "about": "“USE OF METALLOPROTEASE INHIBITORS IN THE TREATMENT OF POLYCYSTIC LIVER DISEASES” (UNIVERSIDAD DE SALAMANCA, priority 2012, published 2016)", "key": {"[1]": {"test_system": "polycystic human cholangiocytes", "assay": "Metalloproteolytic activity of culture supernatants, ES001 fluorogenic peptide cleavage", "format": "cell-based", "conditions": "polycystic cholangiocytes vs basal; Table 3 final concentration: IL-6, IL-8 50 ng/ml; 17β-estradiol 1 nM/ml; VEGF, EGF, ENA-78, GRO-α 10 ng/ml; HGF 20 ng/ml; FIG. 9", "experimental": "(§1) Metalloproteolytic or metalloprotease activity was measured in supernatants of cultures of normal human cholangiocytes and polycystic human cholangiocytes by an assay based on the cleavage of the ES001 fluorogenic synthetic peptide (R&D Systems Minneapolis, Minn., USA) that emits fluorescence proportional to metalloproteolytic activity. The substrate Mca-Pro-Leu-Gly-Leu-Dpa-Ala-Arg-NH2 [Mca: (7-Methoxycoumarin-4-yl)acetyl, Dpa: N-3-(2,4-Dinitrophenyl)-L-2,3-diaminopropionyl] (Knight C G, et al. FEBS Letters 1992; 296:263) is lysed between glycine and leucine by the action of the MMPs, especially MMP-1 (collagenase 1), MMP-2 (gelatinase A), MMP-7 (matrilysin), MMP-8 (collagenase 2), MMP-9 (gelatinase B), MMP-12 (macrophage elastase), MMP-13 (collagenase 3), MMP-14 (MT1-MMP), MMP-15 (MT2-MMP) and MMP-16 (MT3-MMP).\n(§2) The basal metalloproteolytic activity of normal human cholangiocyte and polycystic human cholangiocytes cultures was determined by trypsinising the contents of 250 ml flasks and counting the number of cells in an inverted optical microscope using a Neubauer camera and a ½ dilution of the cell solution with trypan blue (Sigma). Next, 300,000 cells were seeded in each well of a 6-well plate and incubated with enriched DMEM/F-12 medium for 24 hours. After this time, the cells were washed with PBS and the culture medium changed for 2 ml of quiescent medium (DMEM/F-12, 1% FBS and 1% P/S) and incubated for 6 hours at 37° C./5% CO2. The supernatant was collected from each well and centrifuged at 4° C. for 10 minutes at 1,500 rpm to remove the dead cells present in the supernatant. The supernatant was concentrated 50 times using a 15 kDa (Millipore) Amicon Ultra concentrator. Next the concentrated supernatant was incubated for 2 hours at 37° C. with the ES001 fluorogenic peptide at a final concentration of 10 μM. Also, GM6001 (a global MMP inhibitor) and aprotinin (a global inhibitor of serine proteases) (both from Sigma-Aldrich) were used as controls of the specificity of the analysis of MMP activity in the assay. Recombinant MMP-10 (kindly provided by Dr. José Antonio Rodriguez Garcia, Laboratorio de Ateroesclerosis e Inflamación del CIMA, Universidad de Navarra) was used as a positive control and DMEM/F-12 medium without serum was used as the negative control. The fluorescence determination was kinetically measured in a Spectra MAX GeminiXS (Molecular Devices Sunnyvale, Calif., USA) spectrophotometer at excitation-emission wavelengths of 320-405 nm. The fluorescence intensity emitted by the culture medium was extracted from the metalloproteolytic activity values. The metalloproteolytic activity was calculated from the tangent to the curve of the fluorescence values using at least six different points over time for each type of cell and condition.\n(§3) To analyse the effect of various stimuli on the metalloproteolytic activity of normal and polycystic human cholangiocytes cultures, a protocol similar to that described before in Example 2 was followed, but in this case the incubation of the cells was with quiescent medium (i.e. DMEM/F12, […]) in the presence of the corresponding stimulus (Table 3). Next, the same procedure as described for the analysis of basal metalloproteolytic activity was followed as described in Example 2.\n(§4) Taking into account that: i) basal activity of polycystic human cholangiocytes in culture is greater than that of normal human cholangiocytes and ii) that IL-6 and IL-8 increased the metalloproteolytic activity of normal and polycystic human cholangiocytes, the role of these two cytokines on metalloproteolytic hyperactivity of polycystic human cholangiocytes using antibodies against the receptors of IL-6 (IL6R) and/or IL-8 (CXCR1) was investigated. […]"}, "[2]": {"test_system": "normal human cholangiocytes", "assay": "Metalloproteolytic activity of culture supernatants, ES001 fluorogenic peptide cleavage", "format": "cell-based", "conditions": "normal cholangiocytes vs basal; Table 3 final concentration: IL-6, IL-8 50 ng/ml; 17β-estradiol 1 nM/ml; VEGF, EGF, ENA-78, GRO-α 10 ng/ml; HGF 20 ng/ml; FIG. 9", "experimental": "as §1, §2, §3, §4"}, "[3]": {"test_system": "polycystic human cholangiocytes", "assay": "MMP mRNA expression by quantitative PCR in the presence of IL-6, IL-8 or 17β-estradiol", "format": "cell-based", "experimental": "(§5) To determine if the metalloproteolytic hyperactivity of polycystic human cholangiocytes is associated with changes in the pattern of expression of MMPs and their natural inhibitors, TIMPs, at the level of mRNA, this was analysed by quantitative PCR (i.e. qPCR) using the cDNA previously obtained as explained in Example 1, the gene expression of a total of 22 genes, including those containing the members of the metalloprotease family: MMP-1, MMP-2, MMP-3, MMP-7, MMP-8, MMP-9, MMP-10, MMP-11, MMP-13, MMP-14, MMP-15, MMP-16, MMP-17, MMP-18, MMP-24, MMP-25, MMP-26, MMP-27 and their natural inhibitors: TIMP-1, TIMP-2, TIMP-3, TIMP-4. Briefly, 4 μl of the cDNA were taken and 1.8 μl of a 10 μM solution of each primer (final concentration 0.9 μM) and 10 μl of FastSYBR® Green (Applied Biosystems) were added, adding sterile water (Braun) to reach a final volume of 20 μl. The amplification reactions were performed in a StepOne Plus (Applied Biosystems) thermo cycler following the standard protocol conditions for FastSYBR Green®.\n(§6) The relative estimate of the mRNA levels of the genes of Table 2 were calculated from the PCR progression curve (fluorescence vs. cycle), where the cycle threshold or Ct was determined from when the fluorescence signal begins to increase exponentially. Thus to calculate the difference of relative expression of the normal and polycystic human cholangiocytes, the data obtained were analysed following the modified method of Livak and Schmittgen (Livak K J, et al. Methods 2001; 25:402), according to the following equation:\n(§7) Relative values=1.8^(polycystic or normal cholangiocyte GAPDH−polycystic or normal cholangiocyte GEN)\n(§8) Where the superscripts “GAPDH polycystic or normal cholangiocytes” and “Gene polycystic or normal cholangiocytes” correspond to the Ct for GAPDH and for each studied gene. The value of 1.8 (in place of 2) was used because it is assumed that the real efficiency of each amplification cycle is around 80% instead of 100%.\nas §3\n(§9) Taking into account the increase in metalloproteolytic activity induced by interleukins 6 and 8 and also the oestrogen 17β-estradiol in human cholangiocytes in culture, this was further investigated to determine if the increase in activity was correlated with an increase in gene expression at the level of mRNA of the various MMPs."}, "[4]": {"test_system": "normal human cholangiocytes", "assay": "MMP mRNA expression by quantitative PCR in the presence of IL-6, IL-8 or 17β-estradiol", "format": "cell-based", "experimental": "as §5, §6, §7, §8, §3, §9"}, "[5]": {"conditions": "in vivo; cited from earlier work"}}}
{"molecule": "ENA-78: epithelial neutrophil-activating peptide 78", "values": [{"measurement": "metalloproteolytic activity in presence of stimulus", "setting": "[1]", "result": "did not induce any change"}, {"measurement": "metalloproteolytic activity in presence of stimulus", "setting": "[2]", "result": "did not induce any change"}]}
{"molecule": "C[C@]12CC[C@@H]3c4ccc(O)cc4CC[C@H]3[C@@H]1CC[C@@H]2O", "note": "[17β-estradiol]", "values": [{"measurement": "expression of the other metalloproteinases 1, 8, 9, 14, 16, 18, 24 and 26", "setting": "[3]", "result": "did not show changes"}, {"measurement": "expression of MMP-2 (mRNA)", "setting": "[3]; FIG. 10", "result": "increased"}, {"measurement": "expression of MMP-3 (mRNA)", "setting": "[3]; FIG. 11", "result": "unchanged"}, {"measurement": "expression of MMP-7 (mRNA)", "setting": "[3]; FIG. 12", "result": "unchanged"}, {"measurement": "expression of MMP-10 (mRNA)", "setting": "[3]; FIG. 13", "result": "none of the 3 molecules caused changes"}, {"measurement": "expression of MMP-11 (mRNA)", "setting": "[3]; FIG. 14", "result": "increased"}, {"measurement": "expression of MMP-13 (mRNA)", "setting": "[3]; FIG. 15", "result": "increased"}, {"measurement": "expression of MMP-15 (mRNA)", "setting": "[3]; FIG. 16", "result": "not altered"}, {"measurement": "expression of MMP-17 (mRNA)", "setting": "[3]; FIG. 17", "result": "increased"}, {"measurement": "expression of MMP-27 (mRNA)", "setting": "[3]; FIG. 18", "result": "unchanged"}, {"measurement": "expression of the other metalloproteinases 1, 8, 9, 14, 16, 18, 24 and 26", "setting": "[4]", "result": "did not show changes"}, {"measurement": "expression of MMP-2 (mRNA)", "setting": "[4]; FIG. 10", "result": "none of these modules induced changes"}, {"measurement": "expression of MMP-3 (mRNA)", "setting": "[4]; FIG. 11", "result": "increased"}, {"measurement": "expression of MMP-7 (mRNA)", "setting": "[4]; FIG. 12", "result": "None of the 3 molecules caused changes"}, {"measurement": "expression of MMP-10 (mRNA)", "setting": "[4]; FIG. 13", "result": "increased"}, {"measurement": "expression of MMP-11 (mRNA)", "setting": "[4]; FIG. 14", "result": "increased"}, {"measurement": "expression of MMP-13 (mRNA)", "setting": "[4]; FIG. 15", "result": "increased"}, {"measurement": "expression of MMP-15 (mRNA)", "setting": "[4]; FIG. 16", "result": "did not change"}, {"measurement": "expression of MMP-17 (mRNA)", "setting": "[4]; FIG. 17", "result": "did not change"}, {"measurement": "expression of MMP-27 (mRNA)", "setting": "[4]; FIG. 18", "result": "did not change"}, {"measurement": "metalloproteolytic activity in presence of stimulus", "setting": "[1]", "result": "increase"}, {"measurement": "metalloproteolytic activity in presence of stimulus", "setting": "[2]", "result": "increase"}]}
{"molecule": "O=C(C[C@H](CSc1ccccc1)C(=O)O)c1ccc(-c2ccc(Cl)cc2)cc1", "note": "[BAY-12-9566]", "values": [{"measurement": "half-life in plasma", "setting": "[5]", "result": "90 to 100", "unit": "h"}]}
{"molecule": "VEGF", "values": [{"measurement": "metalloproteolytic activity in presence of stimulus", "setting": "[1]", "result": "did not induce any change"}, {"measurement": "metalloproteolytic activity in presence of stimulus", "setting": "[2]", "result": "did not induce any change"}]}
{"molecule": "HGF: hepatocyte growth factor", "values": [{"measurement": "metalloproteolytic activity in presence of stimulus", "setting": "[1]", "result": "did not induce any change"}, {"measurement": "metalloproteolytic activity in presence of stimulus", "setting": "[2]", "result": "did not induce any change"}]}
